Measurements as given in US20220323406A1, “METHODS AND COMPOSITIONS FOR DIFFERENTIATING STEM CELLS” (Massachusetts Institute of Technology, priority 2019, published 2022).

How the values were obtained:
[1] = tested on: ENR+CD organoids (ISC to Paneth cell differentiation); experiment: Primary screen: basal (non-stimulated) lysozyme secretion LYZ.NS, 2.5-D 384-well ENR+CD organoid differentiation; type: cell-based, mouse
Excerpt: (§1) High-throughput screening.

[2] = tested on: ENR+CD organoids (ISC to Paneth cell differentiation); experiment: Primary screen: CCh-stimulated lysozyme secretion LYZ.S, 2.5-D 384-well ENR+CD organoid differentiation; type: cell-based, mouse; details: primary screen
Excerpt: as §1

[3] = tested on: ENR+CD organoids; experiment: Primary screen: ATP (CellTiter-Glo 3D, CTG) cell number/viability, 2.5-D 384-well ENR+CD organoids;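 also: compounds given at plating and again on day 3 over a 6-day differentiation from ENR+CV stem-cell-enriched precursors, ATP measured on day 6, plate median as control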
[4] = primary screen, dose 0.08 uM, FC relative to plate median
[5] = primary screen, dose 0.08 uM, standard z score
[6] = primary screen, dose 0.40 uM, FC relative to plate median
[7] = primary screen, dose 0.40 uM, standard z score
[8] = primary screen, dose 2.00 uM, FC relative to plate median
[9] = primary screen, dose 2.00 uM, standard z score
[10] = primary screen, dose 10.00 uM, FC relative to plate median
[11] = primary screen, dose 10.00 uM, standard z score
[12] = dose 0.08 uM, FC relative to plate median
[13] = dose 0.40 uM, FC relative to plate median
[14] = dose 2.00 uM, FC relative to plate median
[15] = dose 10.00 uM, FC relative to plate median
[16] = primary screen, standard z score, dose 0.08 uM
[17] = primary screen, standard z score, dose 0.40 uM
[18] = primary screen, standard z score, dose 2.00 uM
[19] = primary screen, standard z score, dose 10.00 uM
[20] = primary screen; dose 0.08 uM; FC vs plate median
[21] = primary screen; dose 0.40 uM; FC vs plate median
[22] = primary screen; dose 2.00 uM; FC vs plate median
[23] = primary screen; dose 10.00 uM; FC vs plate median
[24] = dose 0.08 uM, FC vs plate median
[25] = dose 0.40 uM, FC vs plate median
[26] = dose 2.00 uM, FC vs plate median
[27] = dose 10.00 uM, FC vs plate median
[28] = primary screen, 1st dose row of the treatment (0.08 uM by row order; dose not reprinted)
[29] = primary screen, 2nd dose row of the treatment (0.40 uM by row order; dose not reprinted)
[30] = primary screen, 3rd dose row of the treatment (2.00 uM by row order; dose not reprinted)
[31] = primary screen, 4th dose row of the treatment (10.00 uM by row order; dose not reprinted)
[32] = 1st dose row of the treatment (0.08 uM by row order; dose not reprinted)
[33] = 2nd dose row of the treatment (0.40 uM by row order; dose not reprinted)
[34] = 3rd dose row of the treatment (2.00 uM by row order; dose not reprinted)
[35] = 4th dose row of the treatment (10.00 uM by row order; dose not reprinted)

O=C1CC(=O)c2c(Cl)c(Cl)c(Cl)c(Cl)c21 [TCID]
Dose.FC.LYZ.NS [1, 4]: 0.049 log2 fold change | Z.LYZ.NS [1, 5]: 0.431 | Dose.FC.LYZ.NS [1, 6]: −0.018 log2 fold change | Z.LYZ.NS [1, 7]: −0.155 | Dose.FC.LYZ.NS [1, 8]: 0.066 log2 fold change | Z.LYZ.NS [1, 9]: 0.578 | Dose.FC.LYZ.NS [1, 10]: −0.018 log2 fold change | Z.LYZ.NS [1, 11]: −0.159 | Dose.FC.LYZ.S [2, 12]: 0.062 log2 fold change | Dose.FC.LYZ.S [2, 13]: 0.017 log2 fold change | Dose.FC.LYZ.S [2, 14]: −0.066 log2 fold change | Dose.FC.LYZ.S [2, 15]: −0.054 log2 fold change | Dose.FC.CTG [3, 4]: −0.136 log2 fold change | Z.CTG [3, 5]: −0.325 | Dose.FC.CTG [3, 6]: −0.007 log2 fold change | Z.CTG [3, 7]: −0.017 | Dose.FC.CTG [3, 8]: −0.217 log2 fold change | Z.CTG [3, 9]: −0.517 | Dose.FC.CTG [3, 10]: −0.228 log2 fold change | Z.CTG [3, 11]: −0.545

C#CCC(Cc1cnc2nc(N)nc(N)c2n1)c1ccc(C(=O)N[C@@H](CCC(=O)O)C(=O)O)cc1 (stereo partly drawn) [Pralatrexate]
Dose.FC.LYZ.NS [1, 4]: −0.135 log2 fold change | Z.LYZ.NS [1, 5]: −1.173 | Dose.FC.LYZ.NS [1, 6]: −0.162 log2 fold change | Z.LYZ.NS [1, 7]: −1.413 | Dose.FC.LYZ.NS [1, 8]: −0.154 log2 fold change | Z.LYZ.NS [1, 9]: −1.345 | Dose.FC.LYZ.NS [1, 10]: −0.148 log2 fold change | Z.LYZ.NS [1, 11]: −1.292 | Dose.FC.LYZ.S [2, 12]: −0.183 log2 fold change | Dose.FC.LYZ.S [2, 13]: −0.176 log2 fold change | Dose.FC.LYZ.S [2, 14]: −0.173 log2 fold change | Dose.FC.LYZ.S [2, 15]: −0.215 log2 fold change | Dose.FC.CTG [3, 4]: −0.649 log2 fold change | Dose.FC.CTG [3, 6]: −0.853 log2 fold change | Dose.FC.CTG [3, 8]: −0.681 log2 fold change | Dose.FC.CTG [3, 10]: −0.922 log2 fold change

CCC(CC)CC1(C(=O)Nc2ccccc2SC(=O)C(C)C)CCCCC1 [Dalcetrapib (JTT-705, RO4607381)]
Dose.FC.LYZ.NS ([1]; primary screen, dose 0.08 uM): 0.055 log2 fold change | Dose.FC.LYZ.NS ([1]; primary screen, dose 0.40 uM): −0.037 log2 fold change | Dose.FC.LYZ.NS ([1]; primary screen, dose 2.00 uM): −0.034 log2 fold change | Dose.FC.LYZ.NS ([1]; primary screen, dose 10.00 uM): −0.074 log2 fold change | Z.LYZ.NS [1, 16]: 0.475 | Z.LYZ.NS [1, 17]: −0.324 | Z.LYZ.NS [1, 18]: −0.296 | Z.LYZ.NS [1, 19]: −0.643 | Dose.FC.LYZ.S ([2]; dose 0.08 uM): 0.049 log2 fold change | Dose.FC.LYZ.S ([2]; dose 0.40 uM): 0.104 log2 fold change | Dose.FC.LYZ.S ([2]; dose 2.00 uM): 0.098 log2 fold change | Dose.FC.LYZ.S ([2]; dose 10.00 uM): −0.113 log2 fold change | Dose.FC.CTG ([3]; primary screen, dose 0.08 uM): 0.112 log2 fold change | Dose.FC.CTG ([3]; primary screen, dose 0.40 uM): −0.006 log2 fold change | Dose.FC.CTG ([3]; primary screen, dose 2.00 uM): 0.079 log2 fold change | Dose.FC.CTG ([3]; primary screen, dose 10.00 uM): 0.136 log2 fold change | Z.CTG [3, 16]: 0.268 | Z.CTG [3, 17]: −0.014 | Z.CTG [3, 18]: 0.188 | Z.CTG [3, 19]: 0.324

Cc1ccccc1C(=O)Nc1ccc(C(=O)N2CCCC(N(C)C)c3ccccc32)cc1 (stereo not drawn) [Mozavaptan]
Z.LYZ.NS [1, 5]: 0.584 | Z.LYZ.NS [1, 7]: −0.233 | Z.LYZ.NS [1, 9]: 0.294 | Z.LYZ.NS [1, 11]: −1.752 | Dose.FC.LYZ.NS [1, 20]: 0.067 log2 fold change | Dose.FC.LYZ.NS [1, 21]: −0.027 log2 fold change | Dose.FC.LYZ.NS [1, 22]: 0.034 log2 fold change | Dose.FC.LYZ.NS [1, 23]: −0.201 log2 fold change | Dose.FC.LYZ.S [2, 24]: 0.086 log2 fold change | Dose.FC.LYZ.S [2, 25]: 0.165 log2 fold change | Dose.FC.LYZ.S [2, 26]: 0.106 log2 fold change | Dose.FC.LYZ.S [2, 27]: −0.270 log2 fold change | Dose.FC.CTG [3, 20]: 0.320 log2 fold change | Dose.FC.CTG [3, 21]: 0.235 log2 fold change | Dose.FC.CTG [3, 22]: 0.108 log2 fold change | Dose.FC.CTG [3, 23]: −0.336 log2 fold change

O=C(O)c1ccc(N2C(=O)/C(=C\c3ccc(-c4ccc([N+](=O)[O-])cc4)o3)C=C2c2ccccc2)cc1 [4E1RCat]
SSMD.LYZ.NS_Rep (strictly standardized mean difference) [1, 28]: 0.883 | SSMD.LYZ.NS_Rep (strictly standardized mean difference) [1, 29]: −0.121 | SSMD.LYZ.NS_Rep (strictly standardized mean difference) [1, 30]: 0.437 | SSMD.LYZ.NS_Rep (strictly standardized mean difference) [1, 31]: 0.053 | Dose.FC.LYZ.NS ([1]; primary screen, dose 0.08 uM): 0.100 log2 fold change | Z.LYZ.NS (standard z score) ([1]; primary screen, dose 0.08 uM): 0.874 | Dose.FC.LYZ.NS ([1]; primary screen, dose 0.40 uM): −0.018 log2 fold change | Z.LYZ.NS (standard z score) ([1]; primary screen, dose 0.40 uM): −0.154 | Dose.FC.LYZ.NS ([1]; primary screen, dose 2.00 uM): 0.151 log2 fold change | Z.LYZ.NS (standard z score) ([1]; primary screen, dose 2.00 uM): 1.316 | Dose.FC.LYZ.NS ([1]; primary screen, dose 10.00 uM): 0.007 log2 fold change | Z.LYZ.NS (standard z score) ([1]; primary screen, dose 10.00 uM): 0.062 | SSMD.LYZ.S_Rep (strictly standardized mean difference) [2, 32]: 0.712 | Z.LYZ.S (standard z score) [2, 32]: 0.690 | SSMD.LYZ.S_Rep (strictly standardized mean difference) [2, 33]: 0.185 | Z.LYZ.S (standard z score) [2, 33]: 0.247 | SSMD.LYZ.S_Rep (strictly standardized mean difference) [2, 34]: 0.311 | Z.LYZ.S (standard z score) [2, 34]: 0.316 | SSMD.LYZ.S_Rep (strictly standardized mean difference) [2, 35]: 0.321 | Z.LYZ.S (standard z score) [2, 35]: 0.530 | Dose.FC.LYZ.S ([2]; dose 0.08 uM): 0.107 log2 fold change | Dose.FC.LYZ.S ([2]; dose 0.40 uM): 0.038 log2 fold change | Dose.FC.LYZ.S ([2]; dose 2.00 uM): 0.049 log2 fold change | Dose.FC.LYZ.S ([2]; dose 10.00 uM): 0.082 log2 fold change | SSMD.CTG.Rep (strictly standardized mean difference) [3, 28]: 0.790 | SSMD.CTG.Rep (strictly standardized mean difference) [3, 29]: 0.559 | SSMD.CTG.Rep (strictly standardized mean difference) [3, 30]: 0.022 | SSMD.CTG.Rep (strictly standardized mean difference) [3, 31]: −0.026 | Dose.FC.CTG ([3]; primary screen, dose 0.08 uM): 0.246 log2 fold change | Z.CTG (standard z score) ([3]; primary screen, dose 0.08 uM): 0.587 | Dose.FC.CTG ([3]; primary screen, dose 0.40 uM): 0.362 log2 fold change | Z.CTG (standard z score) ([3]; primary screen, dose 0.40 uM): 0.864 | Dose.FC.CTG ([3]; primary screen, dose 2.00 uM): 0.006 log2 fold change | Z.CTG (standard z score) ([3]; primary screen, dose 2.00 uM): 0.015 | Dose.FC.CTG ([3]; primary screen, dose 10.00 uM): −0.011 log2 fold change | Z.CTG (standard z score) ([3]; primary screen, dose 10.00 uM): −0.026

O=C(O)/C=C/c1ccc(Cn2ccnc2)cc1 [Ozagrel]
Z.LYZ.NS [1, 5]: 0.645 | Z.LYZ.NS [1, 7]: 0.381 | Z.LYZ.NS [1, 9]: 0.698 | Z.LYZ.NS [1, 11]: −0.068 | Dose.FC.LYZ.NS [1, 20]: 0.074 log2 fold change | Dose.FC.LYZ.NS [1, 21]: 0.044 log2 fold change | Dose.FC.LYZ.NS [1, 22]: 0.080 log2 fold change | Dose.FC.LYZ.NS [1, 23]: −0.008 log2 fold change | Dose.FC.LYZ.S [2, 24]: 0.145 log2 fold change | Dose.FC.LYZ.S [2, 25]: 0.096 log2 fold change | Dose.FC.LYZ.S [2, 26]: 0.104 log2 fold change | Dose.FC.LYZ.S [2, 27]: 0.011 log2 fold change | Dose.FC.CTG [3, 20]: 0.055 log2 fold change | Dose.FC.CTG [3, 21]: 0.224 log2 fold change | Dose.FC.CTG [3, 22]: −0.063 log2 fold change | Dose.FC.CTG [3, 23]: 0.113 log2 fold change

C=CC(=O)N1CCC[C@@H](n2nc(-c3ccc(Oc4ccccc4)cc3)c3c(N)ncnc32)C1 [Ibrutinib (PCI-32765)]
Z.LYZ.NS (standard z score) ([1]; primary screen, dose 0.08 uM): −0.619 | Z.LYZ.NS (standard z score) ([1]; primary screen, dose 0.40 uM): −1.225 | Z.LYZ.NS (standard z score) ([1]; primary screen, dose 2.00 uM): −1.763 | Z.LYZ.NS (standard z score) ([1]; primary screen, dose 10.00 uM): −1.737 | Dose.FC.LYZ.S (log2 fold change) ([2]; dose 0.08 uM): −0.139 | Dose.FC.LYZ.S (log2 fold change) ([2]; dose 0.40 uM): −0.206 | Dose.FC.LYZ.S (log2 fold change) ([2]; dose 10.00 uM): −0.312 | Z.CTG (standard z score) ([3]; primary screen, dose 0.08 uM): −0.065 | Z.CTG (standard z score) ([3]; primary screen, dose 0.40 uM): −1.112 | Z.CTG (standard z score) ([3]; primary screen, dose 2.00 uM): −1.244 | Z.CTG (standard z score) ([3]; primary screen, dose 10.00 uM): −2.224
